# In patent publication US6841535B2, “Peptide-mediated transfection agents and methods of use” (Active Motif, priority 2000, dated 2005):
# *1 amine or outer side, *2 acyl side, *3 side chain or, on linkers, in order; H or OH if unused. Where a SMILES comes first, the peptide text is derived from it. Where no end group is shown, it is not given here. Cysteamide = C(CS[*:3])N[*:1]
# Legend:
# [1] = tested on: cardiac cell line H9C2; experiment: Nuclear labeling of cells by fluorescein ODN-peptide conjugate; assay type: cell-based
# Procedure: (§1) For the second ODN, the situation is clearer. This ODN conjugated 3′ with fluorescein and containing an SH group in 5′ for localization reasons has the sequence 5′-[…]-3′ (SEQ ID NO:31) and corresponds to the AS-βCOM antisense sequence complementary to conserved sequence region found in every mRNA encoding β subunit of Ca^2+ channels. After 5 min incubation at 37° C., more than 90% of the cells (cardiac cell line H9C2) were labeled in the nucleus while only 25% of the cells were labeled after 3 hours incubation when using the free ODN.
# [2] = tested on: β subunit of Ca^2+ channels; experiment: Ba2+ current density of treated H9C2 cells; assay type: cell-based; settings: all labeled cells
# Procedure: as §1
# [3] = tested on: HS-68, NIH 3T3, C2C12, COS-7 and CEM-SS cell lines; experiment: Cytotoxicity of MPG and MPG/DNA complex, MTT colorimetric assay; assay type: cell-based
# Procedure: In order to generalize the use of MPG as an efficient delivery agent, the degree of cytotoxicity of MPG and of the MPG/DNA complex (charge ratio 5:1) were evaluated in several cell lines, including HS-68 and NIH 3T3 fibroblasts, C212 myoblasts, COS-7 kidney cells and human CEM-SS lymphoblasts. […] At much higher concentrations of 0.1 and 1 mM MPG, however, cell viability decreased by ˜25 and 60%, respectively.
# The cytotoxicity of both MPG and MPG/plasmid (pRL-SV40 plasmid encoding reporter R.reniformis luciferase) complexes were investigated in the cell lines mentioned above. Cells grown in 35 mm diameter dishes to 75% confluency (0.5-1×10^6 cells per dish) were incubated with 0.1 μM to 1 mM MPG alone or complexed with DNA in a 5:1 ratio, in 1 ml DMEM for 3 h, after which 10% serum was added. Cell culture medium with MPG or MPG/plasmid was not changed, and cell proliferation was measured over 4 days. Cytotoxicity was evaluated by the MTT colorimetric assay, after removing cell culture medium and replacing it with PBS containing 5 mg/ml of MTT (Mosmann, T. (1983) J. Immunol. Methods, 65: 55-63). Results shown correspond to the averages of four separate experiments.
# HS-68, NIH 3T3, C2C12, cos-7 and CEM-SS cell lines were incubated with 0.1 μM to 1 mM MPG alone (A) and with MPG complexed with DNA (pRL-SV40 plasmid encoding R.reniformis luciferase) in a peptide/DNA ratio of 5:1 (B), at 37° C. in DMEM supplemented with 10% FCS. The cytotoxicity of MPG alone and of MPG/DNA complexes was evaluated in MTT colorimetric assays and the results were expressed as percentages of dye reduction in cell lines incubated without MPG. The results correspond to averages of four separate experiments.
# [4] = physiological conditions; cited from earlier work
# [5] = tested on: HS68, NIH 3T3 and 293 cell lines; experiment: Toxicity of Pep-2 in cell lines (MTT staining); settings: concentration of 1 mM
# [6] = tested on: Acheloplasma laidlawii and Spiroplasma melliferum; settings: concentrations much lower than minimal inhibitory concentrations; cited from earlier work
# [7] = tested on: mammalian fibroblasts, NIH 3T3 fibroblasts or murine L1210 lymphocytes; experiment: Cellular localization of lucifer yellow-linked peptides; assay type: cell-based; settings: 3 min incubation at 10 μM
# [8] = phosphatidylcholine or phosphatidylserine monolayers; cited from earlier work
# [9] = Transmembrane ionic channel formation; design: species or system Xenopus laevis; settings: voltage-triggered insertion
# Excerpt: They were characterized on Xenopus laevis oocyte plasma membranes and confirmed on planar lipid bilayers proving thus that channel formation is a true property of the peptide (FIG. 11). The insertion of the peptide in the membrane is voltage-triggered and the channel thus formed are selective for monovalent cations.
compound,measurement,setting,value
"5′-ACCAGCCTTCCGATCCACCAGTCATT-3′ (DNA, backbone not given here; 3' fluorescein conjugate, 5' thiol group, peptide conjugated) [second ODN]",cells labeled in the nucleus,"[1]; ODN conjugated to peptide, 5 min incubation at 37° C.",more than 90%
same,cells labeled,"[1]; free ODN, 3 hours incubation",25%
same,reduction of Ba^2+ current density,[2],≈ 7 fold
CSCC[C@H](NC(=O)[C@@H](NC(=O)[C@H](CO)NC(=O)CNC(=O)[C@H](C)NC(=O)[C@H](C)NC(=O)CNC(=O)[C@H](CC(C)C)NC(=O)[C@H](Cc1ccccc1)NC(=O)CNC(=O)[C@H](CC(C)C)NC(=O)[C@H](Cc1ccccc1)NC(=O)[C@H](CC(C)C)NC(=O)[C@H](C)NC(=O)CNC(C)=O)[C@@H](C)O)C(=O)NCC(=O)N[C@@H](C)C(=O)N[C@@H](Cc1c[nH]c2ccccc12)C(=O)N[C@@H](CO)C(=O)N[C@@H](CCC(N)=O)C(=O)N1CCC[C@H]1C(=O)N[C@@H](CCCCN)C(=O)N[C@@H](CO)C(=O)N[C@@H](CCCCN)C(=O)N[C@@H](CCCNC(=N)N)C(=O)N[C@@H](CCCCN)C(=O)N[C@H](C(=O)NCCS)C(C)C [MPG] (Ac-GALFLGFLGAAGSTMGAWSQPKSKRKV-Cysteamide),decrease of cell viability,[3]; MPG alone 0.1 mM,~25%
same,decrease of cell viability,[3]; MPG alone 1 mM,~60%
same,cytotoxic effects,"[3]; MPG alone up to 10 μM, 48 h at 37° C.",did not induce any cytotoxic effects
same,cytotoxicity,"[3]; MPG complexed with pRL-SV40 at 5:1 ratio, 0.1 mM MPG",no cytotoxicity could be observed
same,decrease of cell viability,"[3]; MPG complexed with pRL-SV40 at 5:1 ratio, 1 mM MPG",~40%
same,solubility,[4],highly soluble
CC(=O)N[C@@H](Cc1ccc(O)cc1)C(=O)NCC(=O)N[C@@H](Cc1ccccc1)C(=O)N[C@@H](CCCCN)C(=O)N[C@@H](CCCCN)C(=O)N[C@@H](CCCNC(=N)N)C(=O)N[C@@H](CCCNC(=N)N)C(=O)N[C@@H](Cc1c[nH]c2ccccc12)C(=O)N[C@@H](CO)C(=O)N[C@@H](CCC(N)=O)C(=O)N1CCC[C@H]1C(=O)N[C@@H](CCCCN)C(=O)N[C@@H](CCC(=O)O)C(=O)N[C@H](C(=O)N[C@@H](Cc1c[nH]c2ccccc12)C(=O)N[C@@H](CCC(=O)O)C(=O)N[C@H](C(=O)N[C@@H](Cc1c[nH]c2ccccc12)C(=O)N[C@@H](Cc1c[nH]c2ccccc12)C(=O)N[C@H](C(=O)N[C@@H](CCC(=O)O)C(=O)NCCS)[C@@H](C)O)[C@@H](C)O)[C@@H](C)O [Pep-1-cya] (Ac-YGFKKRRWSQPKETWETWWTE-Cysteamide),decrease of cell viability,[5],about 10%
MGLGLHLLVLAAALQGAKKKRKV (Ac-MGLGLHLLVLAAALQGAKKKRKV; not fully specified (C-terminus); printed as MGLGLHLLVLAAALQGAKKKRKV) [[2]],effect on membrane potential and transmembrane pH gradient,[6],decrease
same,final localization of lucifer yellow-linked peptide,[7],localize in the nuclei of the cells
same,surface pressure increase,[8],~15 mN/m
same,channel formation,[9],induce formation of transmembrane ionic channels
